For 16 molecules, activity coefficient results are on record in the NIST ThermoML archive (doi:10.1021/je201310d).

This series can be described thus: activity coefficient (dimensionless); of the first substance listed, at infinite dilution; xn = mol fraction of the nth substance listed. As to conditions: 101 kPa, Liquid, Chromatography, x1 = 0.

Numbers after ± are expanded uncertainties.

Regarding `Cc1ccccc1C` [1,2-dimethylbenzene] + CCCCOP(=O)([O-])OCCCC.CCCCn1cc[n+](C)c1, the activity coefficient reads like this: (313.15 K) 1.8 ± 0.11; (323.15 K) 1.77 ± 0.1; (333.15 K) 1.73 ± 0.1; (343.15 K) 1.71 ± 0.1; (353.15 K) 1.68 ± 0.1; (363.15 K) 1.65 ± 0.1.
For `Cc1cccc(C)c1` [1,3-dimethylbenzene] + CCCCOP(=O)([O-])OCCCC.CCCCn1cc[n+](C)c1, the activity coefficient (313.15 K) is 1.99 ± 0.12; the activity coefficient (323.15 K) is 1.95 ± 0.12; the activity coefficient (333.15 K) was 1.92 ± 0.11; the activity coefficient (343.15 K) came out at 1.88 ± 0.11; the activity coefficient (353.15 K) stood at 1.85 ± 0.11; the activity coefficient (363.15 K) turned out to be 1.83 ± 0.11.
As to `Cc1ccc(C)cc1` [1,4-dimethylbenzene] + CCCCOP(=O)([O-])OCCCC.CCCCn1cc[n+](C)c1, the activity coefficient (313.15 K) was determined as 1.91 ± 0.11; the activity coefficient (323.15 K) amounted to 1.86 ± 0.11; the activity coefficient (333.15 K) turned out to be 1.82 ± 0.11; the activity coefficient (343.15 K) stood at 1.78 ± 0.1; the activity coefficient (353.15 K) came to 1.75 ± 0.1; the activity coefficient (363.15 K) worked out at 1.72 ± 0.1.
On to `CC(C)CC(C)(C)C` [2,2,4-trimethylpentane] + CCCCOP(=O)([O-])OCCCC.CCCCn1cc[n+](C)c1, for which the activity coefficient is, setting by setting: (313.15 K) 6.2 ± 0.37; (323.15 K) 6.12 ± 0.36; (333.15 K) 6.06 ± 0.36; (343.15 K) 6.01 ± 0.36; (353.15 K) 5.94 ± 0.35; (363.15 K) 5.88 ± 0.35.
In the case of `c1ccccc1` [benzene] + CCCCOP(=O)([O-])OCCCC.CCCCn1cc[n+](C)c1, the activity coefficient is 1.03 ± 0.06 (313.15 K); 0.97 ± 0.05 (323.15 K); 0.93 ± 0.05 (333.15 K); 0.9 ± 0.05 (343.15 K); 0.88 ± 0.05 (353.15 K); 0.85 ± 0.05 (363.15 K).
As for `C1CCCCC1` [cyclohexane] + CCCCOP(=O)([O-])OCCCC.CCCCn1cc[n+](C)c1, the activity coefficient (313.15 K) worked out at 3.09 ± 0.18; the activity coefficient (323.15 K) turned out to be 2.99 ± 0.18; the activity coefficient (333.15 K) turned out to be 2.84 ± 0.17; the activity coefficient (343.15 K) stood at 2.76 ± 0.16; the activity coefficient (353.15 K) is 2.68 ± 0.16; the activity coefficient (363.15 K) was 2.59 ± 0.15.
Take `C1=CCCCC1` [cyclohexene] + CCCCOP(=O)([O-])OCCCC.CCCCn1cc[n+](C)c1: the activity coefficient (313.15 K) amounted to 2.2 ± 0.13; the activity coefficient (323.15 K) is 2.15 ± 0.13; the activity coefficient (333.15 K) was determined as 2.11 ± 0.13; the activity coefficient (343.15 K) came out at 2.05 ± 0.12; the activity coefficient (353.15 K) turned out to be 2.02 ± 0.12; the activity coefficient (363.15 K) is 1.96 ± 0.12.
With `CCCCCCCCCC` [decane] + CCCCOP(=O)([O-])OCCCC.CCCCn1cc[n+](C)c1, the activity coefficient runs as follows: (313.15 K) 10 ± 0.6; (323.15 K) 9.65 ± 0.58; (333.15 K) 9.16 ± 0.55; (343.15 K) 8.78 ± 0.52; (353.15 K) 8.54 ± 0.51; (363.15 K) 8.25 ± 0.49.
In the case of `CCCCCCC` [heptane] + CCCCOP(=O)([O-])OCCCC.CCCCn1cc[n+](C)c1, the activity coefficient (313.15 K) is 5.5 ± 0.33; the activity coefficient (323.15 K) came out at 5.38 ± 0.32; the activity coefficient (333.15 K) amounted to 5.29 ± 0.31; the activity coefficient (343.15 K) was determined as 5.21 ± 0.31; the activity coefficient (353.15 K) is 5.12 ± 0.3; the activity coefficient (363.15 K) came to 5.05 ± 0.3.
On to `CCCCCC` [hexane] + CCCCOP(=O)([O-])OCCCC.CCCCn1cc[n+](C)c1, for which the activity coefficient (313.15 K) is 4.73 ± 0.28; the activity coefficient (323.15 K) came out at 4.63 ± 0.28; the activity coefficient (333.15 K) amounted to 4.51 ± 0.27; the activity coefficient (343.15 K) was determined as 4.45 ± 0.26; the activity coefficient (353.15 K) was determined as 4.32 ± 0.26; the activity coefficient (363.15 K) is 4.24 ± 0.25.
On to `CC1CCCCC1` [methylcyclohexane] + CCCCOP(=O)([O-])OCCCC.CCCCn1cc[n+](C)c1, for which the activity coefficient by setting is: (313.15 K) 3.7 ± 0.22; (323.15 K) 3.61 ± 0.21; (333.15 K) 3.54 ± 0.21; (343.15 K) 3.48 ± 0.21; (353.15 K) 3.41 ± 0.2; (363.15 K) 3.35 ± 0.2.
Consider `CCCCCCCCC` [nonane] + CCCCOP(=O)([O-])OCCCC.CCCCn1cc[n+](C)c1, for which the activity coefficient reads like this: (313.15 K) 7.69 ± 0.46; (323.15 K) 7.47 ± 0.45; (333.15 K) 7.31 ± 0.44; (343.15 K) 7.13 ± 0.42; (353.15 K) 7.02 ± 0.42; (363.15 K) 6.88 ± 0.41.
With `CCCCCCCC` [octane] + CCCCOP(=O)([O-])OCCCC.CCCCn1cc[n+](C)c1, the activity coefficient is, setting by setting: (313.15 K) 6.54 ± 0.39; (323.15 K) 6.43 ± 0.38; (333.15 K) 6.36 ± 0.38; (343.15 K) 6.28 ± 0.37; (353.15 K) 6.21 ± 0.37; (363.15 K) 6.15 ± 0.37.
With `CCCCC` [pentane] + CCCCOP(=O)([O-])OCCCC.CCCCn1cc[n+](C)c1, the activity coefficient by setting is: (313.15 K) 4.12 ± 0.25; (323.15 K) 4.05 ± 0.24; (333.15 K) 3.93 ± 0.23; (343.15 K) 3.86 ± 0.23; (353.15 K) 3.79 ± 0.23; (363.15 K) 3.72 ± 0.22.
On to `C=Cc1ccccc1` [styrene] + CCCCOP(=O)([O-])OCCCC.CCCCn1cc[n+](C)c1, for which the activity coefficient was determined as 1.19 ± 0.07 (313.15 K); 1.15 ± 0.06 (323.15 K); 1.09 ± 0.06 (333.15 K); 1.07 ± 0.06 (343.15 K); 1.03 ± 0.06 (353.15 K); 0.98 ± 0.05 (363.15 K).
For the molecule `Cc1ccccc1` [toluene] + CCCCOP(=O)([O-])OCCCC.CCCCn1cc[n+](C)c1, the activity coefficient (313.15 K) is 1.39 ± 0.08; the activity coefficient (323.15 K) came to 1.35 ± 0.08; the activity coefficient (333.15 K) was determined as 1.32 ± 0.07; the activity coefficient (343.15 K) was 1.3 ± 0.07; the activity coefficient (353.15 K) worked out at 1.29 ± 0.07; the activity coefficient (363.15 K) amounted to 1.27 ± 0.07.
